Source: BindingDB's records for doi:10.1016/j.ejmech.2018.04.062 (Lindsley F. Kimball Research Institute, 2018)

Tests used:
Cytochrome P450 2C9 = Cytochrome P450 2C9 (Homo sapiens, UniProt P11712); test: Inhibition of human liver microsome CYP2C9 using diclofenac as substrate incubated for 20 mins by LC-MS/MS analysis
Cytochrome P450 1A2 = biological target: T1, Cytochrome P450 1A2 (Homo sapiens, UniProt P05177); test: Inhibition of human liver microsome CYP1A2 using phenacetin as substrate incubated for 20 mins by LC-MS/MS analysis
T1 sequence (P05177 whole entry): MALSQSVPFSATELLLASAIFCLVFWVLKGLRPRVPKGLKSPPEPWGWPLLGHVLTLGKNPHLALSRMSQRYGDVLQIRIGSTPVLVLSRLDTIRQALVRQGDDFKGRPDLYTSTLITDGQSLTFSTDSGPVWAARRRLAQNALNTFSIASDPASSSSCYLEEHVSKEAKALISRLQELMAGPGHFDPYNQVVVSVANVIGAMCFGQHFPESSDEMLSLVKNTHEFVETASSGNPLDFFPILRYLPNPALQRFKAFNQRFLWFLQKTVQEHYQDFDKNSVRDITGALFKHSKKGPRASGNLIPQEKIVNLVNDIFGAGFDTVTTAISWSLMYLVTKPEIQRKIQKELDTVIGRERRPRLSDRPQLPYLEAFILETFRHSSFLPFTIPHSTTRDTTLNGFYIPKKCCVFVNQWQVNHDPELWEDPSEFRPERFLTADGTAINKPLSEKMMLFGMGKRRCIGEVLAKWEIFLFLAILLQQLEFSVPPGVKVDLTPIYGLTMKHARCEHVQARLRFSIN

Cytochrome P450 2D6 = Cytochrome P450 2D6 (Homo sapiens, UniProt P10635); test: Inhibition of human liver microsome CYP2D6 using bufuralol as substrate incubated for 20 mins by LC-MS/MS analysis
[1] = biological target: Potassium voltage-gated channel subfamily H member 2 (Homo sapiens, UniProt Q12809); test: Inhibition of human ERG transfected in HEK293 cells assessed as reduction in channel current at -80 mV holding potential by whole-cell patch clamp method
Cytochrome P450 2C8 = biological target: T2, Cytochrome P450 2C8 (Homo sapiens, UniProt P10632); test: Inhibition of human liver microsome CYP2C8 using paclitaxel as substrate incubated for 20 mins by LC-MS/MS analysis
T2 sequence (P10632 whole entry): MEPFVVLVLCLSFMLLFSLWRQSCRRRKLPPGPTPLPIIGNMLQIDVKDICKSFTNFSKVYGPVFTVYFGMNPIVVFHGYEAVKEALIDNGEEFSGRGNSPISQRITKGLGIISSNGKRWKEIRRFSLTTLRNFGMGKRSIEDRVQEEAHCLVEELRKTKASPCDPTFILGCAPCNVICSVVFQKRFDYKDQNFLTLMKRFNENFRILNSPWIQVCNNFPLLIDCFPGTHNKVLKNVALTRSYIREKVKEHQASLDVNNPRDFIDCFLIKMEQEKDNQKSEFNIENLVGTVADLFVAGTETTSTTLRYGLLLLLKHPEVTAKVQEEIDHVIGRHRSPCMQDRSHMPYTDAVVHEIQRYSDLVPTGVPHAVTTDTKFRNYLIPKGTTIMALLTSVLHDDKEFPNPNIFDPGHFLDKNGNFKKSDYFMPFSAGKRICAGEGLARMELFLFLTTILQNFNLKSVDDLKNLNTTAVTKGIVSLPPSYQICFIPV

Cytochrome P450 2C9, sequence (P11712 whole entry): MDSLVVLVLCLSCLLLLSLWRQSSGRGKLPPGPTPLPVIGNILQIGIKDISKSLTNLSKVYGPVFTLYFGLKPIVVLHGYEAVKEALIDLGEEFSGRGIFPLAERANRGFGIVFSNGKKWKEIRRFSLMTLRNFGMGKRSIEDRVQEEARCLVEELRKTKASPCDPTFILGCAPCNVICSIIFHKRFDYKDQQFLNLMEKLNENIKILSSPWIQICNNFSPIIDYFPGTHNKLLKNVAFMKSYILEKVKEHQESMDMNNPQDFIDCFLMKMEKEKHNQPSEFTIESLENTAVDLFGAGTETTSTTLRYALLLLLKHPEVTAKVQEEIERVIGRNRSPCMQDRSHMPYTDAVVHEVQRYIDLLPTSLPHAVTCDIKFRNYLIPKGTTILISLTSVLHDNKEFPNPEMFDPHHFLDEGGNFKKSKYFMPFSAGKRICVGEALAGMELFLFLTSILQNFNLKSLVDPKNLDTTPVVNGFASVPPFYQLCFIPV
Cytochrome P450 2D6, sequence (P10635 whole entry): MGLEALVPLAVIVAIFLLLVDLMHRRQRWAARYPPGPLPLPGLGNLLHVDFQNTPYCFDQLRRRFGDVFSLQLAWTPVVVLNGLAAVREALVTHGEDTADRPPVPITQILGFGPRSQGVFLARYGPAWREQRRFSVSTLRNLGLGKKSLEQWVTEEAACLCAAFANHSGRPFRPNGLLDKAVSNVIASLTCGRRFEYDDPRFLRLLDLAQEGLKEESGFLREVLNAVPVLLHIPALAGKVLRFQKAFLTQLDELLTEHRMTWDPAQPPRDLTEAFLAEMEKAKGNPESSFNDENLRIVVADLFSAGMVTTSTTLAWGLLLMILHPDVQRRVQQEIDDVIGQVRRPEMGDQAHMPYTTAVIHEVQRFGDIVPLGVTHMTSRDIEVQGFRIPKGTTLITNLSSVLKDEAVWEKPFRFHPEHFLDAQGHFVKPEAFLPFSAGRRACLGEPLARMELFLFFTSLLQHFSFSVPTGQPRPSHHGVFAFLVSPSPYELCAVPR
Potassium voltage-gated channel subfamily H member 2, sequence (Q12809 whole entry): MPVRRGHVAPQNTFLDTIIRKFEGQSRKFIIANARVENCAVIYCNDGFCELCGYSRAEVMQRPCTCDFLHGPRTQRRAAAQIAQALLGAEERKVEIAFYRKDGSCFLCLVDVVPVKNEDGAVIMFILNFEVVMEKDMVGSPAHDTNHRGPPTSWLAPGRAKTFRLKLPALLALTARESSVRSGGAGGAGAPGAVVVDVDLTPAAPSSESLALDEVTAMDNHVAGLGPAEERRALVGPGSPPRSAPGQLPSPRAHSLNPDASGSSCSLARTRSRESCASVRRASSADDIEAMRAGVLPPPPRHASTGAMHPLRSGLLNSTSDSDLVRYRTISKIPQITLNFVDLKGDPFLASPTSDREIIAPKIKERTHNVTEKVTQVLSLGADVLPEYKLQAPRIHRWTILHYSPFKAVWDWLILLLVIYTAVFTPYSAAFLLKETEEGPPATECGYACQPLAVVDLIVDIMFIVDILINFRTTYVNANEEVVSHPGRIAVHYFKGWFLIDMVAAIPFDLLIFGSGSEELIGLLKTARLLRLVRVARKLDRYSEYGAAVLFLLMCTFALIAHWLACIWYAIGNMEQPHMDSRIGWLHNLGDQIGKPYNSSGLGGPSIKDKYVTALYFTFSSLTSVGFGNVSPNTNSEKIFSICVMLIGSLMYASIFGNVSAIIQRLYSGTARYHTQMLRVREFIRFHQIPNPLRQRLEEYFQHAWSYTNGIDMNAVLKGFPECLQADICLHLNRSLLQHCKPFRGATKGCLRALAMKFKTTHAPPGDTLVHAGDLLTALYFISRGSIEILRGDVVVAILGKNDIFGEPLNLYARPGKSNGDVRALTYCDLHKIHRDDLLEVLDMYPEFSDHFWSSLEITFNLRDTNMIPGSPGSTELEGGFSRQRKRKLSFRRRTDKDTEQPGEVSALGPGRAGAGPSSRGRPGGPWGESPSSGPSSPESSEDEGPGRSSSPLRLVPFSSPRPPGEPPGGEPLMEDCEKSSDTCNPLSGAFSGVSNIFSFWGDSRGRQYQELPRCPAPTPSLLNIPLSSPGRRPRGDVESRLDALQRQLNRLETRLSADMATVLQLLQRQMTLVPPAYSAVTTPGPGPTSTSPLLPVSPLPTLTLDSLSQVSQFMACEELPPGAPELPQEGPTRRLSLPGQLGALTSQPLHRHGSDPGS

NC[C@H](NC(=O)c1ccc(-c2ccc(C(F)(F)F)c(F)c2)[nH]1)c1nc(CO)cs1
IC50 (Cytochrome P450 2C9): > 25 µM
IC50 (Cytochrome P450 1A2): > 25 µM
IC50 (Cytochrome P450 2D6): > 25 µM
IC50 [1]: 3 µM
IC50 (Cytochrome P450 2C8): > 25 µM
